Assays:
[1] = Body weight and heart and lung weights in J2N-k hamsters; format: in vivo, hamster; details: for Body weight (g) at dissection: week 8
Protocol: (§1) Dissection was performed as follows. After all of the blood was collected from the abdominal aorta, and the hamsters were euthanized under isoflurane anesthesia, the heart and lungs were removed and weighed. After the weights thereof were measured, the removed parts, including the left and right ventricles, were divided into three parts; i.e., apical, middle, and basal parts, at intervals of about 2 mm along the short axis.
Tables 26 and 27 show the body weight change at the time of grouping and at the time of dissection, and the weights of heart and lung at the time of dissection.

[2] = system: rat model of ischemia by complete coronary artery ligation; experiment: Infarct area evaluation in rat myocardial ischemia model; format: in vivo; details: 3.0 mg/kg single i.v., day 14
Protocol: (§2) Dissection was performed after the completion of the echocardiography at day 14 after the administration of the test substance. For dissection, all of the blood was collected from the abdominal aorta, and the rats were euthanized under isoflurane anesthesia; thereafter, the heart was removed and weighed. After measuring the heart weight, the infarct area, including the left and right ventricles, was divided into three parts along the short axis.
(§3) For the sections, the apical portion was removed, and the middle area was sectioned into two parts at an interval of about 2 mm. Thereafter, the infarct area of the two sections on the apical and basal sides was measured. The infarct area was evaluated based on the ratio of the infarct area to the entire left ventricular area, and the ratio of the length of the normal area or the infarct area to the left ventricular outer diameter.
[…]

[3] = Body weight and heart weight in rat myocardial ischemia model; format: in vivo
Protocol: as §2

[4] = system: BLM pulmonary fibrosis model mice; experiment: Survival rate in BLM pulmonary fibrosis model mice; format: in vivo; details: day 6 to 28 after BLM
Protocol: C57BL/6NCr female mice (7 weeks old) were anesthetized with sodium pentobarbital, and then intratracheally (intrapulmonary) administered with 20 μL of a bleomycin hydrochloride aqueous solution (BLM) twice (40 μL in total per animal). In a normal group (Normal), vehicle (physiological saline) was similarly intratracheally administered.
From 6 days to 28 days after the BLM administration, the test substance was administered to compare the survival rates. As the test substances, compound (A) (ONO-1301) was repeatedly orally administration twice daily, compound (A) (ONO-1301) was intravenously administered once weekly, and compound (A) (ONO-1301) was intratracheally administered once weekly. Further, Formulation 25 (ONO-1301Lipo) was intravenously administered once weekly, and Formulation 25 (ONO-1301Lipo) was intratracheally administered once weekly to analyze the DDS effect of Formulation 25 (ONO-1301Lipo) by comparing the survival rates.
From 6 days after the preparation of the lung injury model, the vehicle and compound (A) (3 mg/kg) were repeatedly orally administered twice daily for 23 days (the administration interval between morning and afternoon was 8 hours or more).
(§4) The administration was performed 6 days after the preparation of the lung injury model; after that, tail vein intravenous administration was performed once weekly (4 times in total, i.e., 6, 13, 20, and 27 or 28 days after the preparation of the model).
as §4, with “intratracheal” for “tail vein intravenous”, “model). In normal Group 9 (Normal), physiological saline was administered in a similar manner.” for “model).”

[5] = system: spontaneous dilated cardiomyopathy (J2N-k) hamster model; experiment: Left ventricular wall thickness and area in short-axis sections of removed heart; format: in vivo; details: week 8; for Left ventricle wall thickness (mm) Anterior / Left ventricle wall thickness (mm) Lateral / Left ventricle wall thickness (mm) Posterior / Left ventricle wall thickness (mm) Septum: middle section
Protocol: as §1
When removed, the heart, including the left and right ventricles, was divided into three parts; i.e., apical, middle, and basal parts, at intervals of about 2 mm along the short axis. Among them, one section of the middle part was photographed, and the wall thickness at the anterior, lateral, posterior, and septum parts, and the left ventricular area were measured using image-editing software. For the wall thickness of the left ventricle, image-editing software was used, the number of pixels in the scale area of 1 mm^2 on the photograph was obtained, and the outer diameter and inner diameter of the entire left ventricle wall were traced to obtain each number of pixels to thus calculate the left ventricular area by ((the number of pixels of the outer diameter−the number of pixels of the inner diameter)/1 mm^2). Thereafter, the wall thickness of each portion was measured.
The section was divided into three parts; i.e., apical, middle, and basal areas, at intervals of about 2 mm. Thereafter, using one section on the middle side, the wall thickness at the anterior, lateral, posterior, and septum parts, and the left ventricular area were measured. For the wall thickness of the left ventricle, image-editing software was used, the number of pixels in the scale area of 1 mm^2 on the photograph was obtained, and the outer diameter and inner diameter of the entire left ventricle wall were traced to obtain each number of pixels to thus calculate the left ventricular wall area by ((the number of pixels of the outer diameter−the number of pixels of the inner diameter)/1 mm^2). Thereafter, the wall thickness of each portion was measured.

[6] = 3.0 mg/kg intravenous once/2 weeks

O=C(O)COc1cccc2c1CCC=C2CCO/N=C(\c1ccccc1)c1cccnc1 [Compound (A), ({5-[2-({[(1E)-phenyl(pyridin-3-yl)methylene]amino}oxy)ethyl]-7,8-dihydronaphthalen-1-yl}oxy)acetic acid]
Body weight (g) at dissection ([1]; 3.0 mg/kg i.v. once/2 weeks): 144.4 ± 13.3 g
Body weight (g) at dissection ([1]; 3.0 mg/kg p.o. twice/day): 128.6 ± 3.0 g
Body weight (g) Before drug administration ([1]; group 3.0 mg/kg i.v. once/2 weeks): 128.7 ± 10.4 g
Body weight (g) Before drug administration ([1]; group 3.0 mg/kg p.o. twice/day): 118.8 ± 9.6 g
Left ventricular area (mm^2) Infarct region ([2]; first of two sections): 18.1 ± 5.18 mm^2
Left ventricular area (mm^2) Normal region ([2]; first of two sections): 31.1 ± 2.83 mm^2
Left ventricular area Infarct rate (%) ([2]; first of two sections): 36 ± 8.0%
Left ventricular outer diameter (cm) Infarct region ([2]; first of two sections): 1.5 ± 0.15 cm
Left ventricular outer diameter (cm) Normal region ([2]; first of two sections): 1.7 ± 0.41 cm
Left ventricular outer diameter Infarct rate (%) ([2]; first of two sections): 46 ± 7.5%
Left ventricular area (mm^2) Infarct region ([2]; second of two sections): 14.6 ± 3.23 mm^2
Left ventricular area (mm^2) Normal region ([2]; second of two sections): 41.0 ± 8.03 mm^2
Left ventricular area Infarct rate (%) ([2]; second of two sections): 26 ± 2.2%
Left ventricular outer diameter (cm) Infarct region ([2]; second of two sections): 1.2 ± 0.37 cm
Left ventricular outer diameter (cm) Normal region ([2]; second of two sections): 2.3 ± 0.41 cm
Left ventricular outer diameter Infarct rate (%) ([2]; second of two sections): 34 ± 10.2%
Body weight (g) At dissection ([3]; 3.0 mg/kg single i.v., day 14): 406.7 ± 37.4 g
Body weight (g) Before drug administration ([3]; group 3.0 mg/kg single i.v.): 325.1 ± 22.3 g
Body weight (g) Before preparation of AMI ([3]; group 3.0 mg/kg single i.v.): 339.7 ± 13.6 g
survival rate ([4]; intratracheal 1 mg/kg once/week): 20%
survival rate ([4]; intravenous 3 mg/kg once/week): 40%
survival rate ([4]; oral 3 mg/kg twice/day): 60%
Left ventricular area (Middle part) (mm^2) ([5]; 3.0 mg/kg i.v. once/2 weeks): 23.9 ± 4.5 mm^2
Left ventricle wall thickness (mm) Anterior [5, 6]: 1.1 ± 0.6 mm
Left ventricle wall thickness (mm) Lateral [5, 6]: 1.2 ± 0.3 mm
Left ventricle wall thickness (mm) Posterior [5, 6]: 1.2 ± 0.2 mm
Left ventricle wall thickness (mm) Septum [5, 6]: 1.0 ± 0.3 mm
Left ventricle wall thickness (mm) Anterior ([5]; 3.0 mg/kg p.o. twice/day): 1.4 ± 0.5 mm
Left ventricle wall thickness (mm) Lateral ([5]; 3.0 mg/kg p.o. twice/day): 1.5 ± 0.2 mm
Left ventricle wall thickness (mm) Posterior ([5]; 3.0 mg/kg p.o. twice/day): 1.2 ± 0.4 mm
Left ventricle wall thickness (mm) Septum ([5]; 3.0 mg/kg p.o. twice/day): 1.5 ± 0.3 mm
Left ventricular area (Middle part) (mm^2) ([5]; 3.0 mg/kg p.o. twice/day): 26.4 ± 4.3 mm^2

— patent US12569437B2, “Disease-site-specific liposomal formulation” (Osaka University, priority 2017, dated 2026)
